From ChEMBL document CHEMBL3797030, “Anti-hepatitis C Virus Natural Product from a Fungus, Penicillium herquei” (J Nat Prod, 2016)

tested on: Hepatitis C virus; assay: Antiviral activity against Hepatitis C virus J6/JFH1 infected in human Huh7.5.1 cells assessed as reduction in amount of core HCV protein after 72 hrs by focus formation assay; type: functional, organism-based, Hepacivirus hominis; details: J6/JFH1, Huh-7, 72 h

Row | IC50 [µM] | Structure (SMILES)
1 | > 40 | C[C@H]1CCN2C[C@]34C[C@@]5(C(=O)Nc6c5ccc5c6C(=O)CC(C)(C)O5)C(C)(C)[C@@H]3C[C@]12C(=O)N4
2 | > 40 | COc1c(O)c2c3c(c1O)C(=O)[C@@]1(O)C(=C3C(C)=CC2=O)O[C@H](C)C1(C)C
3 | > 40 | COC1=C(O)C2=C3O[C@H](C)C(C)(C)[C@]3(O)C(=O)c3c(C)cc(O)c(c32)C1=O

Second part, the molecule before the results:

Row | Structure (SMILES) | IC50 [µM]
4 | C[C@H]1CCN2C[C@]34Cc5c([nH]c6ccccc56)C(C)(C)[C@@H]3C[C@]12C(=O)N4 | > 40
5 | C[C@H]1CCN2CC34Cc5c([nH]c6c7c(ccc56)OC(C)(C)CC7=O)C(C)(C)[C@@H]3CC12C(=O)N4 (some centres not stated) | 5.1
6 | COc1c(O)c2c3c(c1O)C(=O)[C@@]1(O)C(=C3C(C)=C(O)C2=O)O[C@@H](C)C1(C)C | > 40
7 | COC1=N[C@]23CN4CC[C@@](C)(O)[C@]14C[C@H]2C(C)(C)[C@@]1(C3)C(=O)Nc2c1ccc1c2C(=O)CC(C)(C)O1 | > 40
